Molecules are shown by their SMILES.

These results are taken from patent publication US9821000B2, “Compounds, compositions and corresponding uses for preventing and/or treating of dyslipidemia” (CENTRE NATIONAL DE LA RECHERCHE SCIENTIFIQUE (CNRS), priority 2013, dated 2017).

What all share (format): cell-based, Saccharomyces cerevisiae
The subject of data set [1] is QM strain. In words: Toxicity test on QM strain (growth inhibition haloes). The conditions noted are these: after three days. The method, then: 5 μl drops of OAG, LPA or oleic acid were deposited, from stock solutions in the concentrations indicated, on the surface of an agar medium on which the QM strain had been preliminarily spread. […] These haloes are on the contrary not observed in the presence of LPA and OAG.
At the same time, wild strains (WT) and QM are cultivated in aerobic conditions under stirring and at 28° C., in a YPG liquid medium before seeding 3500 cells per cm^2 of YPG+agar 2% (m/v). Following this transfer to solid medium, 1 μL drops of solutions of different compounds at 1, 10 and 100 mM in DMSO or EtOH are deposited on the surface of the agar. Separately, deposits of DMSO and EtOH are also made in order to assess the intrinsic toxicity of these two solvents. After three days of culture of 28° C., the toxicity of the tested compounds is evaluated by comparing the diameters of the growth inhibition haloes obtained for the deposits of undissolved solvents with those of the deposits of different concentrations of compounds tested.

For data set [2], the system named is hem1Δ yeasts. Kind of data set: Restoration of growth of lipo-intoxicated hem1Δ yeasts (drop test on agar). The conditions noted are these: SFA accumulation conditions; 5 μl drops on agar; after three days. The method, then: FIG. 3B—The hem1Δ yeasts were cultivated in conditions of SFA accumulation as indicated. 5 μl drops of OAG, LPA and oleic acid in the concentrations indicated were then deposited on the surface of the agar medium. The restoration of growth of the hem1Δ yeasts is observed in the formation of colonies after three days.
The strain carrying the hem1Δ strain is cultivated, under aerobic conditions, under stirring and at 28° C., in a YPG^A liquid medium (YPG (yeast extract 1% (m/v), peptone 1% (m/v) and glucose 2% (m/v)) supplemented with δ-aminolevulinic acid (ALA) at 80 μg/mL). Lipotoxicity by saturated fatty acids (SFA) is prompted by depletion of unsaturated fatty acids (UFA)—the synthesis of which is dependent on the presence of haem (prosthetic grouping of the enzyme Ole1p especially)—by transfer into YPG^+ medium (YPG supplemented with ergosterol at 80 μg/mL to compensate for the depletion in sterol obtained under these conditions). The lipotoxicity can be induced in a solid medium YPG^++agar 2% (m/v) in transferring 3500 cells (hem1Δ coming from a pre-culture in YPG^A)/cm^2 or *alternatively in a liquid medium in inoculating 2·10^6 cells/mL of YPG^+. Classically, the effects of lipotoxicity on SFA are analyzed 7 h after the transfer into YPG^+ medium. The capacity of a compound to counter the deleterious effects of lipotoxicity with SFA is for its part evaluated successively with the addition of this compound on (or in) the YPG^+ transfer medium after seeding with cells.
1) Screening of compounds: Following the induction of lipotoxicity with SFA (for hem1Δ cultivated in a solid medium), 5 μL drops of solutions of different compounds at 10 mM in dimethylsulfoxide (DMSO) or in ethanol (EtOH) are deposited on the surface of agar. The capacity of a compound to counter the lipo-induced stoppage of cell growth is estimated by the appearance of a halo of hem1Δ colonies at the position of the deposit of said compound after three days of culture at 28° C. (cf. Deguil et al., 2011).

Data set [3] relates to hem1Δ yeasts. Kind of data set: Phospholipid fatty acid content by mass spectrometry in lipo-intoxicated hem1Δ yeasts. The method, then:
The hem1Δ yeasts were cultivated in standard conditions (control) or in conditions of SFA accumulation without (Ø) or with the addition of 100 μM of oleic acid, LPA or OAG as indicated.
FIG. 6A—After 7 h of incubation, the phospholipids (PL) were extracted and the different species of phosphatidylcholine (PC), which constitute the predominantly present PL were analyzed by mass spectrometry in positive mode, according to Pineau et al. (2008).
FIG. 6B—All the species of PL detectable in these conditions of mass spectrometry were analyzed to globally quantify the content in SFA forms.
The hem1Δ strain is cultivated in a YPG^A, YPG^+ or YPG^+ liquid medium+200 μM of compound to be tested in aerobic conditions, under stirring and at 28° C. for 7 h, starting from an initial cell concentration of 2·10^6 cells/mL. At the end of the culture, 10^8 cells are collected in order to carry out the extraction of the total lipids. After the cells have been put in suspension in 1 mL of distilled water at 4° C., 500 μL of glass beads (Ø 0.6 mm) are added and the whole mixture then undergoes three sequences of 20 seconds at 5000 rpm in a stirrer (the tubes are kept on ice between each of the three sequences). The cellular lysate then obtained, complemented with water for rinsing the beads (1 mL), is then transferred into a 40 mL glass tube (Corex™) and then the lipids are extracted by using a methanol:chloroform ratio of 2:1 (v/v). Initially, 6 mL of methanol are added and the entire mixture is vortexed for 30 seconds and then incubated for 15 minutes at 65° C. Once the mixture has been cooled to ambient temperature, […] of chloroform is added and then the entire mixture is again vortexed for 30 seconds before allowing the extraction to take place for 16 h. Subsequently, the sample is centrifuged for 12 minutes at 10000 g and then the supernatant is transferred into a new Corex™ tube. After the addition of 2 mL of chloroform and then 4 mL of distilled water, the entire mixture is vortexed for 30 seconds and then centrifuged for 8 minutes at 3000 g. After elimination of the resultant upper phase, the lower organic phase is collected in a hemolysis tube made of glass. Finally, the solvent is evaporated under a nitrogen stream at 80° C. to obtain total cell lipid samples.
The samples of total cell lipids are put back into suspension in 1 mL of dichloromethane in being vortexed for 30 seconds. The entire mixture is deposited on a silica column (BOND ELUT-SI, 100 mg 1 mL) preconditioned with 3 mL of methanol and then 2 mL of dichloromethane successively. The fraction retained by the column is then washed with 2 mL of dichloromethane and then 2 mL of acetone successively. Finally, 2 mL of a mixture of chloroform/methanol/water 50:45:5 (v/v/v) are deposited on the column and the phospholipids thus eluted are collected in a glass hemolysis tube. The solvent is evaporated under nitrogen at 80° C. to obtain the samples of cellular phospholipids.
Once put back into suspension in 100 μL of mixture Mix^− (isopropanol/acetonitrile/water 2:1:1 (v/v/v)+triethylamine 1% (v/v)) or mixture Mix^+ (isopropanol/acetonitrile/water 2:1:1 (v/v/v)+formic acid 1% (v/v)), the samples are analyzed by mass spectrometry (Electro Spray Ionization-Mass Spectrometry (ESI-MS)) in negative or positive mode respectively and the results obtained serve to analyze the fatty acid content of the different species of phospholipids.

Consider `CCCCCCCC/C=C\CCCCCCCC(=O)O` [oleic acid, reference compound], for which, in data set [1] (QM strain on agar medium), the “toxicity for cells that do not synthesize triglycerides” value is reported as “toxicity”. The “haloes of growth inhibition (absence of colonies)” value in data set [1] (QM strain, 5 μl drops on agar) is listed as “haloes of growth inhibition (absence of colonies) can be observed”. Moreover, the “restoration of growth of lipo-intoxicated hem1Δ yeasts (formation of colonies)” value in data set [2] was “restore the growth”. The “plasticity of membranes previously lipo-intoxicated by SFAs” value in data set [3] (hem1Δ yeast model) is “restores the plasticity of the membranes”. Besides, in data set [3] (hem1Δ, SFA accumulation, 100 μM compound, 7 h), the “production of di-unsaturated phospholipids (level of PC species 36:2)” value is “increase of the level of this species”.
